In the supplement of paper PMC7017272:
± gives the standard deviation of the averaged measurements.

Columns and labels:
Settings in all cases: treatment time: 3 days
[1] = system: UT-SCC-24A; assay: drug sensitivity score (DSS); higher = more sensitive
Description: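 HNSCC cell lines (500 cells/well, 384-well) were cultured on plastic, on top of (2D) or embedded (3D) in Matrigel or human leiomyoma matrix Myogel (500 ug/mL; Myogel 3D mixed with rat collagen I). Cells were treated for 3 days with 5 ten-fold concentrations of each drug, and viability was read by CellTiter-Glo. Suffixes _1/_2/_3 on drug names are replicates.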

[2] = system: UT-SCC-40; assay: relative IC50 (midpoint of the fitted curve; maximal inhibition may be below 50%); higher = less potent
Method in brief: (§1)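 Viability of HPV-negative HNSCC cell lines was measured by CellTiter-Glo 2.0 luminescence. Cells were seeded at 500 cells/well in 384-well plates on plastic, on Matrigel- or Myogel-coated wells (500 µg/mL), or embedded in Matrigel or Myogel plus rat collagen I, then given compounds at five 10-fold concentrations for 3 days, with signals normalised to vehicle (0.1% DMSO) and cell-killing control wells. Fitting of percent-inhibition dose–response curves in the FIMM pipeline yielded IC50, maximal inhibition and drug sensitivity score.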

[3] = system: UT-SCC-81; assay: as above
Method in brief: as §1

[4] = system: UT-SCC-24B; assay: as above
Method in brief: as §1

[5] = system: UT-SCC-28; assay: as above
Method in brief: as §1

[6] = system: UT-SCC-44; assay: maximal % inhibition of viability relative to DMSO; higher = stronger effect
Description: (§2)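 HNSCC cell lines (500 cells/well, 384-well) were cultured on plastic, on top of (2D) or embedded (3D) in Matrigel or human leiomyoma matrix Myogel (500 ug/mL; Myogel 3D mixed with rat collagen I). Cells were treated for 3 days with 5 ten-fold concentrations of each drug, and viability was read by CellTiter-Glo. Viability was normalised to DMSO and benzethonium chloride controls and fitted with the FIMM DSRT pipeline to give IC50 (nM), maximal % inhibition and DSS. Suffixes _1/_2/_3 are replicates. Only inhibition-mode (IC50) fits are kept.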

[7] = system: UT-SCC-8; assay: as above
Description: as §2

[8] = system: UT-SCC-42A; assay: as above
Description: as §2

[9] = system: UT-SCC-40; assay: as above
Description: as §2

[10] = system: UT-SCC-81; assay: as above
Description: as §2

[11] = system: UT-SCC-24B; assay: as above
Description: as §2

[12] = system: UT-SCC-73; assay: as above
Description: as §2

[13] = system: UT-SCC-106A; assay: as above
Description: as §2

[14] = system: UT-SCC-14; assay: as above
Description: as §2

[15] = system: UT-SCC-28; assay: as above
Description: as §2

[16] = system: UT-SCC-42B; assay: as above
Description: as §2

[17] = culture condition: embedded in Matrigel
[18] = culture condition: embedded in Myogel + collagen I
[19] = culture condition: on top of Matrigel
[20] = culture condition: on top of Myogel
[21] = culture condition: plastic 2D (no matrix)

## Cc1c(CN2CCN(C(=O)[C@H](C)O)CC2)sc2c(N3CCOCC3)nc(-c3cnc(N)nc3)nc12 [Apitolisib]
[1]; [17]
  drug sensitivity score: 12.5 ± 2.4 DSS
[1]; [18]
  drug sensitivity score: 13.1 ± 1.9 DSS
[1]; [19]
  drug sensitivity score: 13 ± 0.85 DSS
[1]; [20]
  drug sensitivity score: 9.97 ± 0.15 DSS
[1]; [21]
  drug sensitivity score: 13.5 ± 1.6 DSS
[2]; [17]
  relative IC50: 1240 nM
[2]; [18]
  relative IC50: 1560 nM
[2]; [19]
  relative IC50: 1520 nM
[2]; [20]
  relative IC50: 1870 nM
[2]; [21]
  relative IC50: 1820 nM
[3]; [17]
  relative IC50: 396 nM
[3]; [18]
  relative IC50: 748 nM
[3]; [19]
  relative IC50: 1300 nM
[3]; [20]
  relative IC50: 1040 nM
[3]; [21]
  relative IC50: 1140 nM
[4]; [17]
  relative IC50: 891 nM
[4]; [18]
  relative IC50: 736 nM
[4]; [19]
  relative IC50: 874 nM
[4]; [20]
  relative IC50: 1150 nM
[4]; [21]
  relative IC50: 850 nM
[5]; [17]
  relative IC50: 330 nM
[5]; [18]
  relative IC50: 1050 nM
[5]; [19]
  relative IC50: 244 nM
[5]; [21]
  relative IC50: 352 nM
[6]; [17]
  maximal % inhibition of viability: 57.8 ± 1.6%
[6]; [18]
  maximal % inhibition of viability: 65.8 ± 3.9%
[6]; [19]
  maximal % inhibition of viability: 58.2 ± 1.4%
[6]; [20]
  maximal % inhibition of viability: 65.9 ± 2%
[6]; [21]
  maximal % inhibition of viability: 63.5 ± 5%
[7]; [17]
  maximal % inhibition of viability: 97.57 ± 0.12%
[7]; [18]
  maximal % inhibition of viability: 87.6 ± 4.4%
[7]; [19]
  maximal % inhibition of viability: 94.8 ± 1.1%
[7]; [20]
  maximal % inhibition of viability: 90.4 ± 1.6%
[7]; [21]
  maximal % inhibition of viability: 94 ± 1.2%
[8]; [17]
  maximal % inhibition of viability: 79.9 ± 3.6%
[8]; [18]
  maximal % inhibition of viability: 75.8 ± 1.8%
[8]; [19]
  maximal % inhibition of viability: 80.1 ± 2.3%
[8]; [20]
  maximal % inhibition of viability: 75.2 ± 1.4%
[8]; [21]
  maximal % inhibition of viability: 81 ± 1.5%
[9]; [17]
  maximal % inhibition of viability: 89.1 ± 2.1%
[9]; [18]
  maximal % inhibition of viability: 78.6 ± 1.7%
[9]; [19]
  maximal % inhibition of viability: 87.3 ± 1.2%
[9]; [20]
  maximal % inhibition of viability: 64 ± 9.4%
[9]; [21]
  maximal % inhibition of viability: 74.7 ± 2.4%
[10]; [17]
  maximal % inhibition of viability: 93.5 ± 1.6%
[10]; [18]
  maximal % inhibition of viability: 81.1 ± 4.5%
[10]; [19]
  maximal % inhibition of viability: 88.93 ± 0.85%
[10]; [20]
  maximal % inhibition of viability: 79.9 ± 1.5%
[10]; [21]
  maximal % inhibition of viability: 82.8 ± 3.6%
[11]; [17]
  maximal % inhibition of viability: 91.37 ± 0.75%
[11]; [18]
  maximal % inhibition of viability: 92.1 ± 2.7%
[11]; [19]
  maximal % inhibition of viability: 90.4 ± 1.1%
[11]; [20]
  maximal % inhibition of viability: 90.53 ± 0.42%
[11]; [21]
  maximal % inhibition of viability: 92.97 ± 0.47%
[12]; [17]
  maximal % inhibition of viability: 84.2 ± 2.6%
[12]; [18]
  maximal % inhibition of viability: 76.2 ± 4.4%
[12]; [19]
  maximal % inhibition of viability: 82.4 ± 0.53%
[12]; [20]
  maximal % inhibition of viability: 79.5 ± 2.6%
[12]; [21]
  maximal % inhibition of viability: 81.8 ± 2.3%
[13]; [17]
  maximal % inhibition of viability: 69.8 ± 1.9%
[13]; [18]
  maximal % inhibition of viability: 60.4 ± 6.1%
[13]; [19]
  maximal % inhibition of viability: 74.7 ± 0.85%
[13]; [20]
  maximal % inhibition of viability: 66 ± 4%
[13]; [21]
  maximal % inhibition of viability: 81.2 ± 5%
[14]; [17]
  maximal % inhibition of viability: 84.33 ± 0.67%
[14]; [18]
  maximal % inhibition of viability: 80.8 ± 3%
[14]; [19]
  maximal % inhibition of viability: 85.5 ± 3.3%
[14]; [20]
  maximal % inhibition of viability: 79.4 ± 0.92%
[14]; [21]
  maximal % inhibition of viability: 82.1 ± 3.8%
[15]; [17]
  maximal % inhibition of viability: 63.5 ± 2.3%
[15]; [18]
  maximal % inhibition of viability: 76.8 ± 4.2%
[15]; [19]
  maximal % inhibition of viability: 69.97 ± 0.67%
[15]; [21]
  maximal % inhibition of viability: 68.4 ± 2.8%
[16]; [17]
  maximal % inhibition of viability: 86.7 ± 1.6%
[16]; [19]
  maximal % inhibition of viability: 76.3 ± 2.2%
[16]; [20]
  maximal % inhibition of viability: 58.6 ± 2%
[16]; [21]
  maximal % inhibition of viability: 64.5 ± 1.8%
